Results as given in PMC3481155, “AhR activation underlies the CYP1A autoinduction by A-998679 in rats” (Frontiers in Genetics, 2012).
pIC50: −log10 of the molar value.

Assays:
CYP1A2 [1] = experiment: CYP inhibition evaluation in human liver microsomes, CYP1A2 (phenacetin); type: in vitro ADME; settings: pH 7.4, probe substrate phenacetin
Description: (§1) Incubations were performed in human liver microsomes using probe substrate concentrations similar to their corresponding Km values. Enzyme activity was evaluated in the presence of various concentrations of A-998679. The incubations consisted of the test article at varying concentrations (0–30 μM), probe substrate (concentration ~Km, see Table A2), human liver microsomal protein and 1 mM NADPH in 50 mM phosphate buffer at pH 7.4. Relative quantitation of the metabolites was obtained by LC-MS/MS using an ABSciex (Foster City, CA) API3000 or API4000 Qtrap hybrid linear ion trap mass spectrometer equipped with a TurboIonspray source using either PerkinElmer series 200 pumps or Agilent 1100 series pump with a Leap autosampler. Analytes were separated using a Phenomenex Prodigy ODS(3) 5 μm, 50 × 2.0 mm column at 50°C, eluted and detected under the specific conditions listed in Tables A3, A4, and A5. The analyte to internal standard peak area ratios were determined using Analyst 1.4 software (Applied Biosytems, Carlsbad, CA). The peak area ratios observed in the presence of test article were compared to the vehicle control in order to determine percent activity. To determine the IC50, the data were plotted as Log [dose] μM vs. % inhibition, and analyzed with a sigmoidal dose-response (variable slope) fitting equation. […]

CYP2C19 = biological target: T1, CYP2C19 (Homo sapiens, UniProt P33261); experiment: CYP inhibition evaluation in human liver microsomes, CYP2C19 (S-mephenytoin); type: in vitro ADME; settings: probe substrate S-mephenytoin
T1 construct: from tissue; host or cells: human liver microsomes
Description: as §1

rat Cyp 2D2 = biological target: T2, rat Cyp 2D2 (Rattus norvegicus, UniProt P10634); experiment: Recombinant rat Cyp phenotype profiling, 2D2; type: in vitro ADME; settings: 60 min
T2 construct: purchased BD Gentest; host or cells: baculovirus infected insect cells
Description: (§2) Identification of the drug metabolizing enzymes (DMEs) of A-998679 was studied in cDNA expressed recombinant enzymes prepared from baculovirus infected insect cells over-expressing rat Cyp isoforms (BD Gentest, Woburn, MA) as listed in Table 2. Incubations were conducted in duplicate using Supersomes. The incubation mixture contained 100 pmol/ml of enzymes, except for Cyp1a1 (200 pmol/ml), 0.1 or 0.21 μM of [^3H]A-998679 in 100 mM phosphate buffer (pH 7.4). Reactions were initiated with the addition of NADPH at a final concentration of 1 mM and incubated at 37°C for 60 min. At the end of the incubation period, the incubations were terminated by the addition of acetonitrile/ethanol (50/50, v/v) solution. Insect control samples lacking expressed enzyme were used as negative control. The degree of metabolism of A-998679 was assessed by percent of parent remaining using the radio-HPLC method described below.
(§3) Radiolabeled components from the above assays were profiled following separation by HPLC with on line radioflow detector. The system consisted of an Agilent 1100 Series quaternary pump and autosampler connected to a Packard 500TR flow scintillation detector. The data were processed using the Radiomatic™ Flo-one® software v3.65. The scintillant (Perkin Elmer FLO-SCINT™ III) flow was maintained at 3 ml/min. […]

rat Cyp1a1 = biological target: T3, rat Cyp1a1 (Rattus norvegicus, UniProt P00185); experiment: Recombinant rat Cyp phenotype profiling, 1A1; type: in vitro ADME; settings: recombinant rat Cyp 1A1 (200 pmol/ml), 60 min
T3 construct: purchased BD Gentest; host or cells: baculovirus infected insect cells
Description: as §2, §3

Cyp1a2 [2] = experiment: Cyp1a2 mRNA in rat small intestine (jejunum); type: in vivo; settings: data not shown
Description: All animal experiments were conducted in accordance with the Guiding Principles in the Use of Animals in Toxicology (http://www.toxicology.org/ai/air/air6.asp) and were approved by Abbott's Institutional Animal Care and Use Committee (IACUC). Male Sprague-Dawley rats [Crl:CD®(SD)IGS BR], weighing ~250 g at study initiation were obtained from Charles River Laboratories, Inc. (Wilmington, MA). Rats were housed singly in ventilated, stainless steel, wire-bottom hanging cages and fed non-certified Rodent Chow (Harlan Labs, Madison, WI), and water ad libitum and acclimated for at least 5 days after arrival. […] Serum clinical chemistry parameters were quantified using an Aeroset Clinical Chemistry Analyzer (Abbott Laboratories, Abbott Park, IL) and included alanine amino transferase (ALT), aspartate amino transferase (AST), gamma glutamyltransferase (GGT), and alkaline phosphatase (ALP) activities.
Frozen liver or jejunum were immediately added to 4 ml of TRIzol reagent (Invitrogen Life Technologies) and homogenized using a Polytron 300D homogenizer (Brinkman Instruments, Westbury, NY). […] Nucleic acid concentration was determined by OD 260 nm (Smart-Spec, Bio-Rad Laboratories, Hercules, CA), and RNA integrity was evaluated using an Agilent 2100 bioanalyzer (Agilent Technologies, Foster City, CA). […]

T3 sequence (P00185 whole entry): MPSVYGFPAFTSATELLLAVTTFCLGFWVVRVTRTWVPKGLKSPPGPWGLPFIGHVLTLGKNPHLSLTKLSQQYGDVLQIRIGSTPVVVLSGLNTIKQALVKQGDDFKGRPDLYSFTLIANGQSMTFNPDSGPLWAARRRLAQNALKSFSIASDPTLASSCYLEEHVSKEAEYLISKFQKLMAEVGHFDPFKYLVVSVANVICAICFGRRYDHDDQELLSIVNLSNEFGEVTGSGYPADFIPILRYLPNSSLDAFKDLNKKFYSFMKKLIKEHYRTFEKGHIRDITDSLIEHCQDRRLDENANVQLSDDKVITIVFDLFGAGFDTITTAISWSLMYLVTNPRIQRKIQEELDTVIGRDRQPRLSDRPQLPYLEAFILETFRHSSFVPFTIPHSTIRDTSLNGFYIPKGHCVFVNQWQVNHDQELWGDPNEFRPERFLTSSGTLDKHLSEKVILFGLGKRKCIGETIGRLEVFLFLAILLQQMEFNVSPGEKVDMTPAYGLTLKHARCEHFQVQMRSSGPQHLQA
T2 sequence (P10634 whole entry): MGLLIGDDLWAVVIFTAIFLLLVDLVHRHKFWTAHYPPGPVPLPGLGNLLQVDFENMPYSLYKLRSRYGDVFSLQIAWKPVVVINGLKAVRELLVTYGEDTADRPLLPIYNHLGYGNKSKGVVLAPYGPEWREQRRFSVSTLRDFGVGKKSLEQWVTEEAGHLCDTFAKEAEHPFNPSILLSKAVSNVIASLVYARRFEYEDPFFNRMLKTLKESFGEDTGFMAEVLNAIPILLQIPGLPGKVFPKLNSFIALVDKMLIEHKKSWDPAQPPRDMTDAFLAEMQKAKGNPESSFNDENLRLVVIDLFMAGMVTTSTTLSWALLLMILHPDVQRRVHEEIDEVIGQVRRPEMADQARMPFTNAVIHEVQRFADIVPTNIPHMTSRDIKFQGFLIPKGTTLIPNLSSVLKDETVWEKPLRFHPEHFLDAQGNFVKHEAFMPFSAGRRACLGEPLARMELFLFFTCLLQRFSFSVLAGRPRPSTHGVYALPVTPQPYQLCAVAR
T1 sequence (P33261 whole entry): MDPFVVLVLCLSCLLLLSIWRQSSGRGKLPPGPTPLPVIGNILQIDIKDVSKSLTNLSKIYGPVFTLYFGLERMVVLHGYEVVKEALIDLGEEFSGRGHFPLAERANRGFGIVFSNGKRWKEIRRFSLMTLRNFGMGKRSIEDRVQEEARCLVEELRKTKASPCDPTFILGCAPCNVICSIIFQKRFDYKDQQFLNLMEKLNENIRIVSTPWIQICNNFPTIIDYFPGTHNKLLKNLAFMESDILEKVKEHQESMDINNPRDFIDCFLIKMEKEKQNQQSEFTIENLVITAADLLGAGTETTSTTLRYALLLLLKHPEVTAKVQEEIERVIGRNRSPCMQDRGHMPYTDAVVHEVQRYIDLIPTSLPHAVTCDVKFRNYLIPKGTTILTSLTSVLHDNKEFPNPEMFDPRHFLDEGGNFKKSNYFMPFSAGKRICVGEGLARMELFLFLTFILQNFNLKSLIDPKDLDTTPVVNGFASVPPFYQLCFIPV

N#Cc1cccc(-c2noc(-c3cccnc3)n2)c1 [A-998679, 3-(5-pyridin-3-yl-1,2,4-oxadiazol-3-yl) benzonitrile]
pIC50 (CYP1A2 [1]): 6.34
pIC50 (CYP2C19): < 4.52
% parent remaining (rat Cyp 2D2; recombinant rat Cyp 2D2, 0.10 μM): 100%
% parent remaining (rat Cyp 2D2; recombinant rat Cyp 2D2, 0.21 μM): 98.1%
% parent remaining (rat Cyp1a1; 0.10 μM): 0%
% parent remaining (rat Cyp1a1; 0.21 μM): 0%
Cyp1a2 mRNA levels in rat jejunum (Cyp1a2 [2]): unchanged
